Entries after “also recorded” stand apart in the source; their conditions may differ. [pyrroloC] = pyrrolo-2'-deoxycytidine (fluorescent C analogue)
What was measured:
[1] = Spectral properties of pyrrolo-dC (extinction coefficients, fluorescence quantum yield); type: physicochemical; settings: for QY (quantum yield): relative to quinine sulfate in O.5 M H2SO4
Excerpt: The spectral properties of pyrrolo-dC, coupled with its unique base-pairing ability, make this fluorescent analog extremely valuable in probing DNA structure. When the pyrrolo-dC is base-paired, its fluorescence can be reduced or quenched through what is most likely base stacking interactions (see Table I).

[2] = biological target: T7 RNA Polymerase (Escherichia phage T7, UniProt P00573); settings: transcription bubble in elongation complexes; cited from earlier work
Sequence of T7 RNA Polymerase (P00573 whole entry): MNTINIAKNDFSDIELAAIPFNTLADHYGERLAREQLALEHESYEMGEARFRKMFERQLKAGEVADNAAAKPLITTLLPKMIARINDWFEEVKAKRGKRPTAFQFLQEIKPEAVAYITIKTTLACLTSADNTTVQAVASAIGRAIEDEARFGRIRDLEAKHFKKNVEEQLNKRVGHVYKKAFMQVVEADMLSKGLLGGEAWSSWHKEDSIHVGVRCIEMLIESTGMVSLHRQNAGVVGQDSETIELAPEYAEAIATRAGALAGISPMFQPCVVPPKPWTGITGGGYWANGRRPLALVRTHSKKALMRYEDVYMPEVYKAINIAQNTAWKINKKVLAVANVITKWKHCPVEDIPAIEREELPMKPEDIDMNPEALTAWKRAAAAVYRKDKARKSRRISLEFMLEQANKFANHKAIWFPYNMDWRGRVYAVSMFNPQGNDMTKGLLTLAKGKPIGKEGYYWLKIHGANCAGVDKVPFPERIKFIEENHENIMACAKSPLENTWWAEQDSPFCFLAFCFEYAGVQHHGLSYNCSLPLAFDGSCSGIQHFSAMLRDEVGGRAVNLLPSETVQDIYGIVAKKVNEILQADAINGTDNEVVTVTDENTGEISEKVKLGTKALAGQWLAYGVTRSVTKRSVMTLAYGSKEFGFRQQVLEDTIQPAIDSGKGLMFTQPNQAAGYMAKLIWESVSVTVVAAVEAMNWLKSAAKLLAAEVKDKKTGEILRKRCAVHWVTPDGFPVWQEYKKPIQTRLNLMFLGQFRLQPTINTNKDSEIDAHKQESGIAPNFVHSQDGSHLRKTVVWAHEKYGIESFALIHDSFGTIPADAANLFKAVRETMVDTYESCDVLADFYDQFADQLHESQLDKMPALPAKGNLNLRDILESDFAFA

[3] = biological target: T1, AmpiTaq DNA polymerase (Thermus aquaticus, UniProt P19821); assay: PCR and sequencing with pyrrolo-dCTP replacing dCTP; type: biochemical; settings: dye-terminator cycle sequencing of PCR product
T1 construct: purchased Applied Biosystems
T1 sequence (P19821 whole entry): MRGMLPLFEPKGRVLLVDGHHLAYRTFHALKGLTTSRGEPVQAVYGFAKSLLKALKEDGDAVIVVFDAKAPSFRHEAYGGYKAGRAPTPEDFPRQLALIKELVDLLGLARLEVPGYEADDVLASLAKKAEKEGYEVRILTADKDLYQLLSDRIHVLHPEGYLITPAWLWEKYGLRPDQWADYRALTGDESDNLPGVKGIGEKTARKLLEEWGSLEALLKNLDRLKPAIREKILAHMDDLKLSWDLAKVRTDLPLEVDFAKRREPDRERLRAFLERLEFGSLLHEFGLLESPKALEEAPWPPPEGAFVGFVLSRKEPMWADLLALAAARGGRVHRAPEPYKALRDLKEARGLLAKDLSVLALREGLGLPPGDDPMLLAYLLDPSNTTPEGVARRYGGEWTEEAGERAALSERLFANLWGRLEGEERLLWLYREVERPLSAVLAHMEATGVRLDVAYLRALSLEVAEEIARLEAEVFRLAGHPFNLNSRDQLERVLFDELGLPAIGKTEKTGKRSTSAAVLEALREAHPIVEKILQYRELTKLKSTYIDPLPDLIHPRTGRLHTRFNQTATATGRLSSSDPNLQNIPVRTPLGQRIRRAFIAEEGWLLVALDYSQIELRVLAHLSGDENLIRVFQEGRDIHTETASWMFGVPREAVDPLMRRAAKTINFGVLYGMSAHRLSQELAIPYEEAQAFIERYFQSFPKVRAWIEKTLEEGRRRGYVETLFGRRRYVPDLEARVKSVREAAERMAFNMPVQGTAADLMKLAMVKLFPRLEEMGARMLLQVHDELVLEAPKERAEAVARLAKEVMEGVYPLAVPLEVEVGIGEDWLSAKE
Excerpt: The triphosphate of pyrrolo-dC (pyrrolo-dCTP) was synthesized and compared with dCTP for its ability to be recognized by polymerases and be incorporated as a dC into polymerase generated products. Nucleotide-triphosphate mixes containing either dCTP or pyrrolo-dCTP were used in amplification reactions similar to the ones above and the product analyzed by acrylamide gel.
The PCR and sequencing experiments in Example 15 were repeated to determine if polymerases incorporated pyrrolo-dCTP as efficiently as dCTP (FIGS. 7 & 8). Purified plasmid DNA with 500-600 bp inserts were amplified in a standard 25 μl PCR reaction. One of the primers was biotinylated to facilitate the post-reaction cleanup of the PCR product. AmpiTaq DNA polymerase (1.25 Units, Applied Biosystems) was used as enzyme with 200 μM final concentration of each dNTP. In the pyrrolo-dCTP samples the dCTP was replaced with 200 μM pyrrolo-dCTP. Following the PCR reaction (55° C. annealing for 20 sec, 72° C. extension for 45 sec, 30 cycles) an aliquot of the reaction was subjected to agarose gel electrophoresis to verify the size and quality of the product. […] An aliquot of the purified product, still attached to the magnetic beads, was sequenced in a standard fluorescent dye-terminator cycle sequencing reaction and analyzed on a Beckman CEQ2000XL DNA sequencer.

[4] = test system: otherwise duplex hybrid, mismatched base adenosine; settings: mismatched base is adenosine; cited from earlier work
[5] = test system: polymerases; assay: Cycle sequencing of PCR fragments made with pyrrolo-dC substituted primer; type: biochemical; settings: C in sense strand product, G in antisense strand product
Excerpt: A series of tests was designed to determine if a pyrrolo-dC residue coded as dC for a dG. In this experiment a 100× diluted aliquot of the ˜500 nucleotide insert generated by the control T7 and Sp6 primers was further amplified using a biotinylated Sp6 primer and either a control 42 base M13-T7 primer or one with four pyrrolo-dC substitutions in the T7 sequence. The PCR product was captured on streptavidin beads, excess primers were removed by washing, and the suspension was divided into two portions. One reaction (the antisense strand) was sequenced using an M13 forward primer (using ABI dRhodamine chemistry); the other was sequenced (carried out using Beckman dye terminator chemistry) by using Sp6, after releasing the sense strand by heat denaturation of the immobilized PCR fragment.
Sequencing reactions (in duplicate) were carried out with PCR fragments to determine if pyrrolo-dC substitutes for dC. PCR fragments were generated by using, as template, a 100-fold dilution of the product of T7/bio-Sp6 reaction (similar to lane 5 above) and a primer pair of biotinylated Sp6 and the M13F-T7 (or its pyrrolo-dC-substituted homolog). The PCR fragment from this amplification was purified by streptavidin beads to remove excess primers and the suspension divided into two portions. […] Thus, under cycle sequencing conditions, the pyrrolo-dC residue is read as a dC.

[6] = test system: polymerases Taq, Vent, Pfu; assay: PCR with different polymerases using T7 or T7-4 pyrrolo-dC primer; type: biochemical; settings: biotinylated Sp6 reverse primer, ~500 nucleotide insert, Vent lower efficiency for both primers
Excerpt: The control and experimental T7 primers were next compared in another experiment using limiting concentrations of each of the T7 primers (1.3, 0.4, 0.15 and 0.05 pmole per reaction) and excess Sp6 primer. […] Finally the control and T7 primer containing four pyrrolo-dC substitutions were compared in their ability to be recognized by a variety of polymerases, Taq from ABI, Vent from New England Biolabs and Pfu from Stratagene. In this case a biotinylated Sp6 primer was used as the reverse primer in the amplification reaction of a plasmid containing an approximately 500 nucleotide insert.
Experiments were carried out to examine the effect of substituted pyrrolo-dC primers on the activity of several polymerases. Three experiments were carried out to examine the ability of different polymerases (Taq, Vent, Pfu) to use the T7 or T7-4 pyrrolo-dC primer in PCR; the other primer in the pair was biotinylated Sp6. […] In FIG. 6, lane 1 is standards, lane 2 is T7-4 pyrrolo-dC primer with Taq (ABI), lane 3 is T7-4 pyrrolo-dC primer with Vent (NEB), lane 4 is T7-4 pyrrolo-dC primer with Pfu (Stratagene), lane 5 is T7 primer with Taq (ABI), lane 6 is T7 primer with Vent (NEB), lane 7 is T7 primer with Pfu (Stratagene), and lane 8 is standards.

[7] = test system: plasmid 600-nucleotide insert; assay: PCR assay: ability of pyrrolo-dC substituted T7 primers to amplify a plasmid insert; type: biochemical; settings: primer dilution 4, 1.3, 0.4, 0.15 and 0.05 pmol, FIG. 4
Method: A series of tests were performed to test the ability of the T7 primers synthesized above to function in biological assays. In the first series of tests each of the T7 primers was evaluated in a PCR assay for their ability to amplify a plasmid insert. In the first experiment either the control or one of the experimental T7 forward primers, with one to four pyrrolo-dC substitutions, and an Sp6 reverse primer were tested for their ability to amplify a plasmid 600-nucleotide insert using supramaximal primer concentrations and the PCR products analyzed on an acrylamide gel. The sequences of the T7 forward primers are as follows: 5′-TAA TAC GAX TCA CTA TAG G-3′ (SEQ ID NO.: 6); 5′-TAA TAC GAX TXA CTA TAG G-3′ (SEQ ID NO.: 7); 5′-TAA TAX GAX TXA CTA TAG G-3′ (SEQ ID NO.: 8); 5′-TAA TAX GAX TXA XTA TAG G-3′ (SEQ ID NO.: 9); (control) 5′-TAA TAC GAC TCA CTA TAG G-3′ (SEQ ID NO.: 10), where X=pyrrolo-dC. Analysis of the stained gel was consistent with no differences in either the mobility or intensity of the stained bands corresponding to the 600-nucleotide PCR product generated by the control or experimental T7 primers.
The control and experimental T7 primers were next compared in another experiment using limiting concentrations of each of the T7 primers (1.3, 0.4, 0.15 and 0.05 pmole per reaction) and excess Sp6 primer. […]

[8] = test system: complementary strands containing each of the four natural deoxyribonucleotide bases opposite pyrrolo-dC; assay: Hybridization specificity: melting temperature (Tm) of 19mer oligonucleotide containing a single pyrrolo-dC; type: binding
Method: The hybridization specificity of pyrrolo-dC was evaluated by determining the melting temperature (Tm) of a 19mer oligonucleotide with the sequence 5′-GCC TAA CTT CXG GAG ATG T-3′ (SEQ ID NO.: 1), where X is Pyrrolo-dC which contains a single pyrrolo-dC. This oligonucleotide was annealed to complementary strands containing each of the four natural deoxyribonucleotide bases opposite it. Hybridization was best with a strand containing dG opposite pyrrolo-dC and decreased in the order dG>dT>dA>dC (melting temperature Tm=65, 56, 55 and 52° C. respectively). The effect of multiple incorporations was next evaluated by synthesizing a T7 universal primer where dC was replaced with zero to four pyrrolo-dC residues. All five oligonucleotides had the same Tm as that of the control (57° C.) when hybridized with an oligonucleotide complementary to the T7 primer regardless of the number of pyrrolo-dC/dC substitutions.

Molecule: Cc1cc2cn([C@H]3C[C@H](O)[C@@H](CO)O3)c(=O)nc2[nH]1 [Pyrrolo-dC, 6-Methyl-3-(β-D-2-deoxyribofuranosyl)pyrrolo[2,3-d]pyrimidin-2-one]
- E260 [1]: 4,000 LImol cm
- E345 [1]: 3,700 L/mol cm
- QY (quantum yield) ([1]; double-stranded): 0.02
- QY (quantum yield) ([1]; single-stranded): 0.07
- increase in fluorescence as the polymerase induces melting [2]: two-fold
- sequence of PCR product generated with the triphosphate [3]: specifically incorporated as a “dC” opposite a dG residue
- fluorescence when mismatched in an otherwise duplex hybrid [4]: higher than the single-stranded species
- how the residue is read under cycle sequencing conditions [5]: “read” as a dC; also recorded: read as a dC

Molecule: SEQ ID NO.:9: T7 forward primer 5′-TAA TAX GAX TXA XTA TAG G-3′, X=pyrrolo-dC; four substitutions (TAATACGACTCACTATAGG; DNA, [pyrroloC] at 6, 9, 11, 13, backbone not given here)
- ability to be used by polymerases in PCR versus unsubstituted T7 primer [6]: equivalence
- primer amount at which product formation sharply decreases [7]: around 0.15 pmol

Molecule: SEQ ID NO.: 1: 19mer oligonucleotide 5′-GCC TAA CTT CXG GAG ATG T-3′, where X is Pyrrolo-dC
- melting temperature Tm ([8]; dA opposite pyrrolo-dC): 55 °C
- melting temperature Tm ([8]; dC opposite pyrrolo-dC): 52 °C
- melting temperature Tm ([8]; dG opposite pyrrolo-dC): 65 °C
- melting temperature Tm ([8]; dT opposite pyrrolo-dC): 56 °C
